A compilation of properties of binary mixtures (doi:10.1016/j.fluid.2020.112621)

Experiment: xn = mol fraction of the nth substance listed
Conditions: 101 kPa

CCCC[n+]1ccn(C)c1.COP(=O)([O-])OC + CC(=O)O.CC(=O)[O-].CC[NH+](CC)CCO
x2 = 0
Conditions | viscosity [mPa·s]
278.15 K | 3503
288.15 K | 1361.1
293.15 K | 895
303.15 K | 426
308.15 K | 305.8
313.15 K | 224.9
318.15 K | 168.9
323.15 K | 129.4
328.15 K | 100.9
333.15 K | 79.9
338.15 K | 64.25
343.15 K | 52.35
348.15 K | 43.18
363.15 K | 25.86
368.15 K | 22.22
373.15 K | 19.25

CCCC[n+]1ccn(C)c1.O=S(=O)([N-]S(=O)(=O)C(F)(F)F)C(F)(F)F + CC(=O)[O-].CCCC[NH2+]CCO
x2 = 0
Conditions | viscosity [mPa·s]
283.15 K | 109
298.15 K | 51.73
303.15 K | 41.8
308.15 K | 34.3
313.15 K | 28.55
323.15 K | 20.5
328.15 K | 17.64
333.15 K | 15.33
338.15 K | 13.43
343.15 K | 11.85
348.15 K | 10.53
353.15 K | 9.41
358.15 K | 8.46
363.15 K | 7.65
368.15 K | 6.95
373.15 K | 6.34

CCCC[n+]1ccn(C)c1.COP(=O)([O-])OC + CCC(=O)O.CCC(=O)[O-].CC[NH+](CC)CCO
x2 = 0
Conditions | viscosity [mPa·s]
278.15 K | 3503
288.15 K | 1361.1
293.15 K | 895
298.15 K | 609
303.15 K | 426
308.15 K | 305.8
313.15 K | 224.9
318.15 K | 168.9
323.15 K | 129.4
333.15 K | 79.9
338.15 K | 64.25
348.15 K | 43.18
353.15 K | 36.02
358.15 K | 30.38
363.15 K | 25.86
368.15 K | 22.22

CCCC[n+]1ccn(C)c1.COP(=O)([O-])OC + CCCC(=O)[O-].CC[NH+](CC)CCO
x2 = 0
Conditions | viscosity [mPa·s]
278.15 K | 3503
283.15 K | 2142
288.15 K | 1361.1
293.15 K | 895
303.15 K | 426
308.15 K | 305.8
313.15 K | 224.9
323.15 K | 129.4
333.15 K | 79.9
338.15 K | 64.25
343.15 K | 52.35
353.15 K | 36.02
358.15 K | 30.38
363.15 K | 25.86
368.15 K | 22.22

CCCC[n+]1ccn(C)c1.COP(=O)([O-])OC + CCCCC(=O)[O-].CC[NH+](CC)CCO
x2 = 0
Conditions | viscosity [mPa·s]
278.15 K | 3503
283.15 K | 2142
288.15 K | 1361.1
293.15 K | 895
298.15 K | 609
308.15 K | 305.8
313.15 K | 224.9
318.15 K | 168.9
333.15 K | 79.9
338.15 K | 64.25
343.15 K | 52.35
353.15 K | 36.02
363.15 K | 25.86

CCCC[n+]1ccn(C)c1.COP(=O)([O-])OC + CCCCCC(=O)O.CCCCCC(=O)[O-].CC[NH+](CC)CCO
x2 = 0
Conditions | viscosity [mPa·s]
278.15 K | 3503
283.15 K | 2142
288.15 K | 1361.1
293.15 K | 895
308.15 K | 305.8
313.15 K | 224.9
323.15 K | 129.4
328.15 K | 100.9
338.15 K | 64.25
343.15 K | 52.35
348.15 K | 43.18
353.15 K | 36.02
368.15 K | 22.22
373.15 K | 19.25

CCCCCC(=O)O.CCCCCC(=O)[O-].CC[NH+](CC)CCO + CCCC[n+]1ccn(C)c1.COP(=O)([O-])OC
viscosity [mPa·s]
Conditions | x1 = 0.0684 | x1 = 0.1429 | x1 = 0.2213 | x1 = 0.3088 | x1 = 0.3966 | x1 = 0.4995 | x1 = 0.6088 | x1 = 0.7258 | x1 = 0.8535 | x1 = 1
278.15 K | 2021 | 1198.1 | – | 529 | 412 | 343 | – | 255.9 | 217.2 | 179
283.15 K | – | 787 | 520 | 365 | 288.7 | – | 211.6 | – | 159 | 132.6
288.15 K | 841 | 535 | – | – | 207.7 | 176.1 | 155.1 | 137.2 | 118.9 | –
293.15 K | 570 | 374 | 259.3 | 189.1 | 152.9 | – | 116 | 103.5 | – | 76.9
298.15 K | 398 | 268.2 | – | – | 114.9 | 98.9 | 88.5 | 79.5 | 70.1 | 60
303.15 K | 285.4 | 197.1 | – | 107 | 88.1 | 76.3 | – | 62.1 | 55.1 | –
308.15 K | 209.4 | – | 108.8 | 82.8 | 68.7 | 59.9 | 54.11 | 49.21 | 43.94 | 38.14
313.15 K | – | 113.2 | 84.6 | – | 54.51 | 47.69 | 43.28 | 39.55 | 35.51 | 31
318.15 K | 120 | 88.2 | 66.9 | 52.14 | – | 38.54 | 35.09 | 32.2 | – | 25.48
323.15 K | 93.3 | 69.8 | 53.69 | 42.29 | – | 31.55 | 28.81 | 26.52 | 24.02 | 21.16
328.15 K | 73.8 | 56.08 | 43.7 | 34.74 | 29.57 | – | 23.92 | 22.08 | 20.07 | –
333.15 K | 59.25 | 45.69 | 36.01 | 28.88 | 24.7 | 21.89 | 20.08 | 18.56 | 16.93 | 15.02
338.15 K | – | 37.68 | – | 24.28 | 20.85 | 18.53 | 17.01 | 15.76 | 14.4 | –
343.15 K | – | 31.44 | – | – | 17.77 | 15.82 | 14.54 | 13.48 | 12.35 | 11.01
348.15 K | 33.12 | 26.52 | 21.54 | 17.66 | 15.28 | 13.63 | 12.53 | 11.63 | 10.67 | –
353.15 K | 27.9 | 22.58 | – | 15.27 | 13.25 | – | 10.89 | – | 9.27 | –
358.15 K | 23.74 | 19.41 | – | 13.3 | 11.58 | 10.34 | 9.52 | 8.84 | 8.11 | –
363.15 K | 20.39 | 16.82 | 13.98 | 11.67 | 10.19 | 9.1 | 8.38 | 7.77 | 7.13 | 6.36
368.15 K | 17.66 | 14.68 | 12.3 | 10.31 | – | 8.06 | 7.42 | 6.87 | 6.3 | 5.61
373.15 K | 15.41 | 12.91 | – | 9.17 | 8.04 | 7.18 | 6.6 | 6.11 | 5.59 | 4.96
